From patent US20240189264A1 (priority 2024, published 2024) come the findings set out here.

For the compound `CC(C)NCC(O)COc1ccc(CC(N)=O)cc1` (centres unmarked) [Atenolol], under “patients taking atenolol single dose”, the “C-reactive protein (CRP) level (in words)” value is reported as “significantly high”. Further, the “response of hypertensive patients to atenolol” value (single dose of 100 mg atenolol, oral administration) is “mostly respond”.
